In patent US20260306460A1, “COMPOSITION FOR REMOVING AND INHIBITING SENESCENT CELLS, AND USES THEREOF” (LIFECEUTIX CO., LTD., priority 2023, published 2026):

Legend:
naturally aged mice = test: Anti-aging evaluation in naturally aged mice, Example 31, Table 55; type: in vivo, mouse; details: for Femur Ctsk mRNA / Kidney Agtr1a mRNA / Liver IL6 mRNA / Liver MMP3 mRNA / Liver p16 mRNA / Open Field Test Time in Center: untreated = 100%; for Heart Sur2a mRNA / Joint Col2a1 mRNA / Skin Col1a1 mRNA / Skin SDF1 mRNA: untreated = 1.0; for Muscle Mass: untreated 0.64 g; for Fat Mass: untreated 0.82 g; for Cataract incidence: untreated 83%;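 for all read-outs here: Vehicle-dosed control mice received solution alone at matching volume, values compare test-compound-treated aged mice against that control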
Procedure: After the end of drug administration, the method described in each example below was performed. […] The mRNA amounts of p16, MMP3, and IL6 after natural aging was induced were calculated as 100% and compared with the mRNA amounts of p16, MMP3, and IL6 after treatment with the test compound. In addition, an open field test for the analysis of aging-related frailty, agtr1a mRNA analysis for kidney damage and disease evaluation, col1a1 and SDF1 mRNA analysis for skin aging evaluation such as wrinkles/loss of elasticity/hyperpigmentation, col2a1 mRNA analysis for evaluating joint aging such as osteoarthritis, sur2a mRNA analysis for evaluating cardiac aging such as decreased cardiac load resistance, ctsk mRNA analysis for evaluating bone diseases due to aging such as osteoporosis, muscle tissue weight for analyzing sarcopenia, fat tissue weight for analyzing lipoatrophy, and cataract incidence analysis were performed in mice. For cataract incidence analysis, the drug was administered twice a week under the conditions specified above, and biweekly examinations were conducted until death.

[1] = system: bleomycin-induced pulmonary fibrosis mice; test: Bleomycin-induced pulmonary fibrosis mice, Example 31, Table 56; type: in vivo, mouse; details: untreated = 100%
Procedure: (§1) The control group was administered only the solution in the same volume. After the end of drug administration, the method described in each example below was performed. Liver, kidney, skin, knee joint, heart, and femur tissues were collected from mice in which natural aging was induced in the same manner as in Examples 7-2 and 7-6 of WO2023-085787 A1. Lung tissues were collected from mice in which pulmonary fibrosis was induced using the same method as in Example 24-1. Liver tissues were collected from mice in which hepatic fibrosis was induced using the same method as in Example 26, and total RNA was extracted. qRT-PCR was performed and analyzed using the synthesized cDNA. […] The mRNA amounts of p16, MMP3, and IL6 after natural aging was induced were calculated as 100% and compared with the mRNA amounts of p16, MMP3, and IL6 after treatment with the test compound. In addition, an open field test for the analysis of aging-related frailty, agtr1a mRNA analysis for kidney damage and disease evaluation, col1a1 and SDF1 mRNA analysis for skin aging evaluation such as wrinkles/loss of elasticity/hyperpigmentation, col2a1 mRNA analysis for evaluating joint aging such as osteoarthritis, sur2a mRNA analysis for evaluating cardiac aging such as decreased cardiac load resistance, ctsk mRNA analysis for evaluating bone diseases due to aging such as osteoporosis, muscle tissue weight for analyzing sarcopenia, fat tissue weight for analyzing lipoatrophy, and cataract incidence analysis were performed in mice. For cataract incidence analysis, the drug was administered twice a week under the conditions specified above, and biweekly examinations were conducted until death.
The table below quantitatively presents the evaluation results for each item in mice with bleomycin-induced pulmonary fibrosis, untreated and treated with the test compound.

[2] = system: carbon tetrachloride-induced liver fibrosis mice; test: Carbon tetrachloride-induced liver fibrosis mice, Example 31, Table 57; type: in vivo, mouse; details: CCl4-induced liver fibrosis mice, untreated = 100%
Procedure: as §1

senescent cells = test: Viability of senescent cells (CellTiter-Glo), Example 17, Table 13; details: Homo sapiens, read-out: Survival (%)
Procedure: Cells induced to undergo senescence by doxorubicin treatment were treated with test compound at designated concentrations and measured using the CellTiter-Glo Luminescent Cell Viability Assay (Promega).

senescent A549 cells = test: Viability of senescent A549 cells (CellTiter-Glo), Example 18, Table 15; details: Homo sapiens, A549, read-out: Survival (%)
Procedure: Senescence-induced cancer cells treated with doxorubicin were treated with the test compound at designated concentrations, and cell viability was measured using the CellTiter-Glo Luminescent Cell Viability Assay (Promega).

| SMILES | Femur Ctsk mRNA (naturally aged mice) [%] | Heart Sur2a mRNA (naturally aged mice) [fold] | Joint Col2a1 mRNA (naturally aged mice) [fold] | Kidney Agtr1a mRNA (naturally aged mice) [%] | Liver IL6 mRNA (naturally aged mice) [%] | Liver MMP3 mRNA (naturally aged mice) [%] | Liver p16 mRNA (naturally aged mice) [%] | Open Field Test Time in Center (naturally aged mice) [%] | Skin Col1a1 mRNA (naturally aged mice) [Fold] | Skin SDF1 mRNA (naturally aged mice) [fold] | Muscle Mass (naturally aged mice) [g] | Fat Mass (naturally aged mice) [g] | Cataract incidence (naturally aged mice) [%] | Lung p16 mRNA [1] | Col1a1 mRNA [1] | Liver p16 mRNA [2] | Col1a1 mRNA [2] | viability at 1.1 µM (senescent cells) [%] | viability at 10 µM (senescent cells) [%] | viability at 1.1 µM (senescent A549 cells) [%] | other results |
| --- | --- | --- | --- | --- | --- | --- | --- | --- | --- | --- | --- | --- | --- | --- | --- | --- | --- | --- | --- | --- | --- |
| CN[C@H](CC(C)C)C(=O)N[C@H]1C(=O)N[C@@H](CC(N)=O)C(=O)N[C@H]2C(=O)N[C@H]3C(=O)N[C@H](C(=O)N[C@H](C(=O)O)c4cc(O)cc(O)c4-c4cc3ccc4O)[C@H](O)c3ccc(c(Cl)c3)Oc3cc2cc(c3O[C@@H]2O[C@H](CO)[C@@H](O)[C@H](O)[C@H]2O[C@H]2C[C@](C)(N)[C@H](O)[C@H](C)O2)Oc2ccc(cc2Cl)[C@H]1O [LX-5424, Vancomycin] | 70 | 2.3 | 1.5 | 68 | 45 | 59 | 72 | 191 | 1.6 | 1.7 | 0.67 | 0.84 | 76 | 70 (±3.5) % | 73 (±2.7) % | 79 (±5.6) % | 51 (±4.7) % | 106 | 62.5 | 98.9 | viability at 30 µM (senescent cells): 10.5%; viability at 10 µM (senescent A549 cells): 74.3%; viability at 30 µM (senescent A549 cells): 21.8% |
| CCN(CC1C(=O)C2CCN1CC2)C(=O)C(Cl)(Cl)Cl (stereo not drawn) [LX-5702] | 61 | 2.5 | 2.4 | 49 | 49 | 55 | 47 | 211 | 1.8 | 2.0 | 0.70 | 0.85 | 66 | 61 (±6.2) % | 68 (±7.5) % | 72 (±3.9) % | 65 (±7.2) % | 97.5 | 5.2 | 91.8 | viability at 10 µM (senescent A549 cells): 38.1%; viability at 30 µM (senescent A549 cells): 3.9% |
| CC12CCN(CC1)C(CNC(=O)C(F)(F)F)C2=O (stereo not drawn) [LX-5706] | 68 | 2 | 1.9 | 70 | 71 | 60 | 64 | 171 | 1.6 | 1.4 | 0.69 | 0.85 | 74 | 76 (±6.1) % | 79 (±5.2) % | 69 (±6.9) % | 70 (±4.8) % | 96.5 | 12.7 | 88.5 | viability at 10 µM (senescent A549 cells): 31%; viability at 30 µM (senescent A549 cells): 0.3% |
| CC12CCN(CC1)C(CN(C1CC1)S(C)(=O)=O)C2=O (stereo not drawn) [LX-5707] | 64 | 2.3 | 2.0 | 65 | 61 | 63 | 59 | 199 | 1.7 | 1.6 | 0.70 | 0.90 | 70 | 72 (±8.9) % | 69 (±7.1) % | 64 (±8.3) % | 72 (±9.6) % | 103 | 27.3 | 81 | viability at 10 µM (senescent A549 cells): 37.3%; viability at 30 µM (senescent A549 cells): 4.3% |
| O=C1C2CCN(CC2)C1(CO)COCc1ccccc1 (stereo not drawn) [LX-5711] | 62 | 2.3 | 2.3 | 63 | 48 | 61 | 65 | 191 | 1.5 | 1.8 | 0.68 | 0.93 | 72 | 70 (±3.8) % | 71 (±4.0) % | 63 (±4.3) % | 74 (±3.0) % | 95.1 | 63.7 | 89 | viability at 30 µM (senescent cells): 20.6%; viability at 10 µM (senescent A549 cells): 52.5%; viability at 30 µM (senescent A549 cells): 11.9% |
| [2H]C([2H])([2H])OCC1(CO)C(=O)C2CCN1CC2 (stereo not drawn) [LX-5721] | 63 | 2.7 | 2.0 | 59 | 54 | 72 | 41 | 218 | 1.7 | 1.7 | 0.68 | 0.97 | 71 | 65 (±5.6) % | 78 (±4.7) % | 52 (±9.6) % | 80 (±9.3) % | 98.5 | 45.5 | 106 | viability at 30 µM (senescent cells): 13.4%; viability at 10 µM (senescent A549 cells): 17.8% |
| [2H]C12CCN(CC1)C(CO)(COC)C2=O (stereo not drawn) [LX-5722] | 59 | 2.4 | 2.1 | 52 | 73 | 63 | 46 | 222 | 1.8 | 1.6 | 0.70 | 1.03 | 69 | 73 (±5.5) % | 78 (±7.2) % | 69 (±6.2) % | 76 (±6.4) % | 91.5 | 34.1 | 99 | viability at 30 µM (senescent cells): 1.8%; viability at 10 µM (senescent A549 cells): 4.1% |
